# Reference: ChEMBL document CHEMBL1201861, “Genomics of Drug Sensitity in Cancer screening data, Wellcome Trust Sanger Institute”
# How the values were obtained:
# NBsusSR = test: cells; type: functional, cell-based, Homo sapiens;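 also: growth inhibition of the human cell line, read out with a cell viability assay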
# Description: SANGER: Inhibition of human NBsusSR cell growth in a cell viability assay.
# ECC10 = test: cells; type: functional, cell-based, Homo sapiens;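 also: growth inhibition of ECC10 cells, read out by a cell viability assay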
# Description: SANGER: Inhibition of human ECC10 cell growth in a cell viability assay.
# CHP-134 = test: SANGER: Inhibition of human CHP-134 cell growth in a cell viability assay.; type: functional, cell-based
# BALL-1 = test: cells; type: functional, cell-based, Homo sapiens;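 also: growth inhibition of BALL-1 cells, read out with a cell viability assay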
# Description: SANGER: Inhibition of human BALL-1 cell growth in a cell viability assay.
# NCI-H1666 = test: cells; type: functional, cell-based, Homo sapiens;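 also: growth inhibition of the cell line, read out with a cell viability assay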
# Description: SANGER: Inhibition of human NCI-H1666 cell growth in a cell viability assay.
# SW900 = test: cells; type: functional, cell-based, Homo sapiens;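 also: IC50 is the concentration that inhibits SW900 cell growth, measured by a cell viability assay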
# Description: SANGER: Inhibition of human SW900 cell growth in a cell viability assay.
# MES-SA = test: cells; type: functional, cell-based, Homo sapiens; details: Homo sapiens, MES-SA;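 also: growth inhibition of human MES-SA cells, read out with a cell viability assay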
# Description: SANGER: Inhibition of human MES-SA cell growth in a cell viability assay.
# NCI-H1618 = test: cells; type: functional, cell-based, Homo sapiens; details: Homo sapiens, NCI-H1618;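 also: growth inhibition of human NCI-H1618 cells, measured by a cell viability assay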
# Description: SANGER: Inhibition of human NCI-H1618 cell growth in a cell viability assay.
# EFE-184 = test: cells; type: functional, cell-based, Homo sapiens; details: Homo sapiens, EFE-184
# Description: SANGER: Inhibition of human EFE-184 cell growth in a cell viability assay.
# EW-7 = test: SANGER: Inhibition of human EW-7 cell growth in a cell viability assay.; type: functional, cell-based; details: Homo sapiens, EW-7
# SNG-M = test: cells; type: functional, cell-based, Homo sapiens; details: Homo sapiens, SNG-M
# Description: SANGER: Inhibition of human SNG-M cell growth in a cell viability assay.
# MFE-296 = test: SANGER: Inhibition of human MFE-296 cell growth in a cell viability assay.; type: functional, cell-based; details: Homo sapiens, MFE-296
# CCF-STTG1 = test: cells; type: functional, cell-based, Homo sapiens; details: Homo sapiens, CCF-STTG1;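 also: growth inhibition of human CCF-STTG1 cells, determined with a cell viability read-out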
# Description: SANGER: Inhibition of human CCF-STTG1 cell growth in a cell viability assay.
# C-4-II = test: SANGER: Inhibition of human C-4-II cell growth in a cell viability assay.; type: functional, cell-based; details: Homo sapiens, C-4-II
# IPC-298 = test: SANGER: Inhibition of human IPC-298 cell growth in a cell viability assay.; type: functional, cell-based; details: Homo sapiens, IPC-298
# TT = test: cells; type: functional, cell-based, Homo sapiens; details: Homo sapiens, TT
# Description: SANGER: Inhibition of human TT cell growth in a cell viability assay.
# MDA-MB-468 = test: cells; type: functional, cell-based, Homo sapiens; details: Homo sapiens, MDA-MB-468
# Description: SANGER: Inhibition of human MDA-MB-468 cell growth in a cell viability assay.
# NCI-H838 = test: cells; type: functional, cell-based, Homo sapiens; details: Homo sapiens, NCI-H838;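 also: growth inhibition of human NCI-H838 cells, read out by a cell viability assay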
# Description: SANGER: Inhibition of human NCI-H838 cell growth in a cell viability assay.
# SNU-475 = test: cells; type: functional, cell-based, Homo sapiens; details: Homo sapiens, SNU-475
# Description: SANGER: Inhibition of human SNU-475 cell growth in a cell viability assay.
# NCI-H1734 = test: cells; type: functional, cell-based, Homo sapiens; details: Homo sapiens, NCI-H1734;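 also: growth inhibition of human NCI-H1734 cells, read out with a cell viability assay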
# Description: SANGER: Inhibition of human NCI-H1734 cell growth in a cell viability assay.
# ECC12 = test: cells; type: functional, cell-based; details: Homo sapiens
# Description: SANGER: Inhibition of human ECC12 cell growth in a cell viability assay.
# NCI-H2107 = test: SANGER: Inhibition of human NCI-H2107 cell growth in a cell viability assay.; type: functional, cell-based
# NCI-H128 = test: SANGER: Inhibition of human NCI-H128 cell growth in a cell viability assay.; type: functional, cell-based
# KP-N-RT-BM-1 = test: SANGER: Inhibition of human KP-N-RT-BM-1 cell growth in a cell viability assay.; type: functional, cell-based
Compound,"IC50 (NBsusSR; Homo sapiens, NBsusSR) [µM]","IC50 (ECC10; Homo sapiens, ECC10) [µM]","IC50 (BALL-1; Homo sapiens, BALL-1) [µM]","IC50 (NCI-H1666; Homo sapiens, NCI-H1666) [µM]","IC50 (SW900; Homo sapiens, SW900) [µM]",further results
Cn1cnc2c(F)c(Nc3ccc(Br)cc3Cl)c(C(=O)NOCCO)cc21 [SELUMETINIB],> 4,> 4,> 4,–,–,IC50 (CHP-134): > 4 µM
Cc1cn(-c2cc(NC(=O)c3ccc(C)c(Nc4nccc(-c5cccnc5)n4)c3)cc(C(F)(F)F)c2)cn1 [NILOTINIB],> 2,> 2,> 2,> 2,> 2,–
Nc1ccn([C@@H]2O[C@H](CO)[C@@H](O)C2(F)F)c(=O)n1 [GEMCITABINE],–,–,–,–,–,IC50 (MES-SA): < 0.004 µM; IC50 (NCI-H1618): 0.198 µM; IC50 (EFE-184): > 1.02 µM; IC50 (EW-7): < 0.004 µM; IC50 (SNG-M): < 0.004 µM; IC50 (MFE-296): 0.0514 µM; IC50 (CCF-STTG1): 0.0314 µM; IC50 (C-4-II): 0.152 µM; IC50 (IPC-298): 0.255 µM; IC50 (TT): > 1.02 µM; IC50 (MDA-MB-468): 0.0141 µM; IC50 (NCI-H838): 0.499 µM; IC50 (SNU-475): > 1.02 µM; IC50 (NCI-H1734): 0.0113 µM
Nc1cccc2c1CN(C1CCC(=O)NC1=O)C2=O (configuration not stated) [LENALIDOMIDE],> 5,> 5,> 5,> 5,> 5,–
C#Cc1cccc(Nc2ncnc3cc(OCCOC)c(OCCOC)cc23)c1 [ERLOTINIB],–,–,–,–,–,IC50 (ECC12): 0.0805 µM; IC50 (NCI-H2107): > 2 µM; IC50 (NCI-H128): > 2 µM
COc1cc(-c2nn([C@H]3CC[C@H](N4CCN(C(C)=O)CC4)CC3)c3ncnc(N)c23)ccc1NC(=O)c1cc2ccccc2n1C,–,–,–,–,–,IC50 (KP-N-RT-BM-1): > 5.12 µM; IC50 (NCI-H2107): > 5.12 µM; IC50 (NCI-H128): > 5.12 µM
CC(C)CCN1c2nc(Nc3cc(F)c(O)c(F)c3)ncc2N(C)C(=O)C1C (configuration not stated),1.83,0.701,> 5,> 5,> 5,IC50 (CHP-134): 3.49 µM
CC(=O)O[C@H]1C(=O)[C@@]2(C)[C@H]([C@H](OC(=O)c3ccccc3)[C@]3(O)C[C@H](OC(=O)[C@H](O)[C@@H](NC(=O)c4ccccc4)c4ccccc4)C(C)=C1C3(C)C)[C@]1(OC(C)=O)CO[C@@H]1C[C@@H]2O [PACLITAXEL],–,–,–,–,–,IC50 (KP-N-RT-BM-1): > 0.102 µM; IC50 (NCI-H2107): > 0.102 µM; IC50 (NCI-H128): > 0.102 µM
CCN(CC)CCCCNc1ncc2cc(-c3cc(OC)cc(OC)c3)c(NC(=O)NC(C)(C)C)nc2n1 [PD-173074],> 2,0.339,> 2,> 2,> 2,IC50 (CHP-134): > 2 µM
COc1cc2c(Nc3ccc(NC(=O)c4ccccc4)cc3)ncnc2cc1OCCCN1CCOCC1,0.914,1.63,> 4,> 4,> 4,IC50 (CHP-134): 1.23 µM
CO[C@H]1C[C@@H]2CC[C@@H](C)[C@@](O)(O2)C(=O)C(=O)N2CCCC[C@H]2C(=O)O[C@H]([C@H](C)C[C@@H]2CC[C@@H](OC(=O)C(C)(CO)CO)[C@H](OC)C2)CC(=O)[C@H](C)/C=C(\C)[C@@H](O)[C@@H](OC)C(=O)[C@H](C)C[C@H](C)/C=C/C=C/C=C/1C [TEMSIROLIMUS],0.0213,> 0.2,> 0.2,> 0.2,> 0.2,–
CCN(CC)CCNC(=O)c1c(C)[nH]c(/C=C2\C(=O)Nc3ccc(F)cc32)c1C [SUNITINIB],–,–,–,–,–,IC50 (KP-N-RT-BM-1): > 8 µM; IC50 (NCI-H2107): > 8 µM; IC50 (NCI-H128): > 8 µM
CS(=O)(=O)c1ccc(C(=O)Nc2ccc(Cl)c(-c3ccccn3)c2)c(Cl)c1 [VISMODEGIB],> 10,–,> 10,> 10,> 10,–
CISPLATIN,–,–,–,–,–,IC50 (NBsusSR; nbsussr): 1.33 µM; IC50 (ECC10; ecc10): 258 µM; IC50 (NCI-H1666; nci-h1666): 56.5 µM; IC50 (BALL-1; ball-1): 75.9 µM; IC50 (SW900; sw900): 28.9 µM
